In patent publication US20130183706A1, “Method for Culturing Adipocytes” (ASSISTANCE PUBLIQUE-HOPITAUX DE PARIS, priority 2010, published 2013):

Test system: Akt phosphorylation in mature adipocytes
Experiment: Measurement of insulin sensitivity (Ser473 Akt phosphorylation, immunoelectrophoresis)
Assay type: cell-based, human
Settings: insulin 10 nM, 15 to 30 minutes; freshly isolated adipocytes (2D) and adipocytes kept 48 h in hydrogel (3D)
Description: The mature adipocytes are isolated by collagenase treatment of human adipose tissue. The subcutaneous human adipose tissue of young women (<45 years) who are not obese (BMI<30) is cut up in digestion medium (DMEM, 2% essentially fatty acid free albumin (A6003, Sigma, St Louis, […]., USA), 1 mg/ml collagenase A (Roche Diagnostics, Mannheim, Germany)) in the proportion of 1 g of tissue per 2 ml of digestion medium in polypropylene tubes. The tubes are placed at 37° C. for […] with agitation (200 cycles/minute). After digestion, the medium is filtered through woven cotton gauze. The mature adipocytes are left to decant by floating for 5 minutes and are then washed 3 times with 5 volumes of 10% sucrose. At the end of the final wash, the sucrose is removed and the mature adipocytes are ready to be incorporated into the PuraMatrix™ hydrogel.
The wells containing the hydrogel/adipocytes deprived of insulin the day before are incubated with the incubation medium (150 μl) (DMEM/F12 and 10 nM insulin). The plates are then placed in the incubator for 15 to 30 minutes. […] The signals are detected by chemiluminescence (Detection ECL, GE Healthcare) and quantified by densitometry.

Insulin: major anabolic hormone
Akt phosphorylation (Ser473): stimulates
